Results reported in patent publication US20150224169A1, “COMPOUNDS AND METHODS FOR SELECTIVELY TARGETING CANCER STEM CELLS” (McMaster University, priority 2012, published 2015).
Read-outs that look alike come from different tables or passages of the source.

Assays:
[1] = tested on: variant neoplastic stem cells (v1O4) relative to normal stem cells (H9); experiment: Selective-activity dose-response screening assay (cell counts, v1O4 versus H9); type: cell-based, human; details: dose-response curves FIG. 3B
Description: Briefly, variant neoplastic stem cells (v1O4) cells were seeded into Matrigel-coated 96 well plates (5000 cells/well) containing mouse embryonic fibroblast conditioned media (MEFCM) supplemented with 8 ng/mL bFGF, and treated for 72 hours with compounds dissolved in DMSO. The final concentration of each compound used in treatment was either 10 μM or 1 μM (n=3). Control wells were treated with 0.1% DMSO (low control) or 100 ng/ml BMP4 (high control to induce LOP). At the end of 72 hours, cells were fixed, stained with Hoechst and imaged by automated microscopy. GFP intensity and Hoechst signal were quantified as measures of LOP and cell count, respectively, and compounds with a Z-score of more than 3 standard deviations from the mean for reduced cell count and LOP were chosen as hits.
In the second stage also shown in FIG. 1, 8- or 10-point dilutions for each compound were tested on variant neoplastic stem cells (v1O4) and normal stem cells (H9 cells) cells to generate dose-response curves. […] Dose response data were fit with a 4-parameter Hill equation to derive EC50, slopes, min and max values using IDBS ActivityBase software. The EC50 values were then used to calculate a selective-activity potency ratio (H9 EC50/v1O4 EC50).

[2] = tested on: AML patient cells; type: cell-based, human; details: for Ability of AML cells to form CFUs / Selectivity ratio of total CFUs from cord blood cells versus blast CFUs from AML samples: 0.1 μM; for Ability of AML cells to form CFUs / CFU forming potential of AML cells: treated one day, 14 days in methylcellulose; for Selectivity ratio of total CFUs from cord blood cells versus blast CFUs from AML samples: normalized to 0.1% DMSO control, ratio greater than 1 = selective for AML
Text: (§1) Methylcellulose assays provide a functional and quantitative measure of hematopoietic progenitor/stem cell proliferation/clonogenic potential based on the formation of colony-forming units (CFUs) in vitro. Hematopoietic progenitor/stem cells from lineage-depleted human umbilical cord blood are capable of proliferation and differentiation to all blood lineages. AML blast cells from leukemia patients are myeloid progenitor cells blocked in differentiation that are sustained by a self-renewing leukemic stem cell(s). In this experiment, lineage-depleted cord blood cells and AML samples were each treated with Nystatin for one day and then cultured in methylcellulose for 14 days after which the numbers of CFUs were determined.
(§2) Cord blood and AML patient cells were seeded in 96-well plates at 500 cells and 25000 cells respectively in 50 μL medium containing StemSpan™ (Stemcell Technologies), 200 ng/mL stem cell factor (SCF, R&D Systems), 200 ng/mL Flt-3 (R&D Systems) and 40 ng/mL thrombopoietin (TPO, Stemcell Technologies). Then, 50 μL StemSpan containing 0.2 μM, 2 μM or 20 μM compounds was added to each well containing the cells. The cells were incubated for 24 hours at 37° C., after which the compound medium was removed from the wells and replaced with 50 μL medium containing StemSpan, 100 ng/mL SCF, 100 ng/mL Flt-3 and 20 ng/mL TPO. The cells from each well were mixed with 500 μL Methocult™ (Stemcell Technologies, H4434), and seeded into 12-well plates. The samples were imaged and scored after 14 days of incubation at 37° C.

[3] = tested on: lineage-depleted human umbilical cord blood cells; experiment: Methylcellulose assay, CFU formation; type: cell-based; details: for Normal hematopoietic progenitor/stem cell proliferation activity (CFU-forming potential of cord blood cells): 0.1 μM, treated one day, 14 days in methylcellulose
Text: as §1, §2

[4] = tested on: variant neoplastic stem cells; details: Sachlos et al., 2012; cited from earlier work
[5] = higher concentrations (above 0.1 μM)

## CS(=O)(=O)O.Cn1cc(C2=C(c3cn(CCCSC(=N)N)c4ccccc34)C(=O)NC2=O)c2ccccc21 [Ro 31-8220 mesylate]
[1]
  Selectivity for cancer stem cells based on a single 10 μM concentration point: would have not have been considered selective

## Nc1ccn([C@@H]2O[C@H](CO)[C@@H](O)[C@@H]2O)c(=O)n1 [AraC, cytarabine]
[2]
  Ability of AML cells to form CFUs: reduced the ability of AML samples to form CFUs
  Selectivity ratio of total CFUs from cord blood cells versus blast CFUs from AML samples: no statistically significant difference
[2]; [5]
  Toxicity to AML cells in methylcellulose assay: toxic
[3]
  Normal hematopoietic progenitor/stem cell proliferation activity (CFU-forming potential of cord blood cells): also affected the CFU-forming potential of cord blood cells
[3]; [5]
  Toxicity to cord blood cells in methylcellulose assay: toxic

## C[C@@H]1[C@H](O)[C@@H](C)/C=C/C=C/CC/C=C/C=C/C=C/C=C/C(O[C@H]2O[C@H](C)[C@@H](O)[C@H](N)[C@@H]2O)CC2O[C@](O)(CC(O)C(O)CCC(O)CC(O)CC(O)CC(=O)O[C@H]1C)CC(O)C2C(=O)O (some centres unmarked) [Nystatin]
[2]
  Ability of AML cells to form CFUs: reduced the ability of AML cells to form CFUs
  Selectivity ratio of total CFUs from cord blood cells versus blast CFUs from AML samples: 1.5
[2]; 1 μM
  CFU forming potential of AML cells: no effect
[2]; 10 μM
  CFU forming potential of AML cells: no effect
[3]
  Normal hematopoietic progenitor/stem cell proliferation activity (CFU-forming potential of cord blood cells): little effect

## CCCCc1ccc2[nH]c(NC(=O)OC)nc2c1 [Parbendazole]
[1]
  Selectivity for cancer stem cells based on a single 10 μM concentration point: would have not have been considered selective

## Nc1nc(O)c2[nH]nnc2n1 [Azaguanine-8]
[1]
  Selectivity for cancer stem cells based on a single 10 μM concentration point: would have not have been considered selective

## CSc1ccc2c(c1)N(CCC1CCCCN1C)c1ccccc1S2 (centres unmarked) [Thioridazine]
[4]
  Action on variant neoplastic stem cells: inducing differentiation through a loss of pluripotency
